Experimental data from patent US10894807B2 (Siemens Medical Solutions USA, Inc., priority 2011, dated 2021).
Where “and” joins values, the source holds several entries; their conditions need not be identical. Equal values may be shown once.

Target: human PSMA (Homo sapiens (Human), UniProt Q04609)
Experiment: Enzymatic assay for in vitro evaluation of PSMA inhibitors (fluorescent assay of PSMA activity, NAAG substrate, OPA detection of glutamate)
Assay type: biochemical
Settings: for PSMA Blkg % (10 μM): compound at 10 μM

Chain of human PSMA (Q04609 whole entry): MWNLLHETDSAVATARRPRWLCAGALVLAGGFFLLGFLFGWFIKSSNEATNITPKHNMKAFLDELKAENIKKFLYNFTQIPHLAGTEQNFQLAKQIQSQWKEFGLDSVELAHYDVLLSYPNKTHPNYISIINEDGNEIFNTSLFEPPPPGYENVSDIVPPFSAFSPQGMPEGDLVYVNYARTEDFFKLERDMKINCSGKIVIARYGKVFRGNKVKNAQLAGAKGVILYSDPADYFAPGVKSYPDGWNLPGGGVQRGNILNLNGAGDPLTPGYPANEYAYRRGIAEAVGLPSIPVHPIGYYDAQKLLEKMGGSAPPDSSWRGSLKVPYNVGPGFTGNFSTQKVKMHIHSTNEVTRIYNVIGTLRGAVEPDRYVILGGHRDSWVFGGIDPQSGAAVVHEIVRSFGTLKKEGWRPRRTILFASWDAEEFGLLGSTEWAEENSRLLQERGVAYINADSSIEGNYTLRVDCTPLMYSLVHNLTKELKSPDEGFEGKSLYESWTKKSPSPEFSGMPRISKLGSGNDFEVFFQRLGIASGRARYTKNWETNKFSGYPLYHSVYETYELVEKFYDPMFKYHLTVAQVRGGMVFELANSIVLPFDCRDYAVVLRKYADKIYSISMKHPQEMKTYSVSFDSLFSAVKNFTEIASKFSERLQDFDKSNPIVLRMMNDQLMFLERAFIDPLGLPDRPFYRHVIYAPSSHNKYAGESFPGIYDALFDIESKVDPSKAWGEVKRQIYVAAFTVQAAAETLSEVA

Row | Ki [nM] | PSMA Blkg % (1.0 μM) | PSMA Blkg % (10 μM) [%] | Molecule
1 |  | 0% |  | [N-]=[N+]=Nc1cc(C(=O)NCCCCCC(=O)N[C@@H](CCC(=O)O)C(=O)O)cc(C(=O)NCCCCCC(=O)N[C@@H](CCC(=O)O)C(=O)O)c1 [P289, (2S,2′S)-2,2′-((6,6′-((5-Azidoisophthaloyl)bis(azanediyl))bis(hexanoyl))-bis(azanediyl))dipentanedioic Acid]
2 |  | 0% |  | O=C(O)CC[C@H](NC(=O)NCCCCCNC(=O)c1cc(C(=O)NCCCCCNC(=O)N[C@@H](CCC(=O)O)C(=O)O)cc(-n2cc(CCCF)nn2)c1)C(=O)O [P290, (2S,2′S)-2,2′-((((((5-(4-(3-Fluoropropyl)-1H-1,2,3-triazol-1-yl)isophthaloyl)bis(azanediyl))bis(pentane-5,1-diyl))bis(azanediyl))bis(carbonyl))-bis(azanediyl))dipentanedioic Acid]
3 | 5 | 95% |  | O=C(O)CC[C@H](NC(=O)N[C@@H](Cc1ccc(NC(=O)CCC(CCC(=O)Nc2ccc(C[C@H](NC(=O)N[C@@H](CCC(=O)O)C(=O)O)C(=O)O)cc2)(CCC(=O)Nc2ccc(C[C@H](NC(=O)N[C@@H](CCC(=O)O)C(=O)O)C(=O)O)cc2)NC(=O)Cn2cc(CCCF)nn2)cc1)C(=O)O)C(=O)O [P291, (2S,2′S)-2,2′-(((((1S,1′S)-((((4S)-4-(3-((4-((2S)-2-Carboxy-2-(3-(1,3-dicarboxypropyl)-ureido)ethyl)phenyl)amino)-3-oxopropyl)-4-(2-(4-(3-fluoropropyl)-1H-1,2,3-triazol-1-yl)acetamido)heptanedioyl)bis(azanediyl))bis(4,1-phenylene))bis(1-carboxyethane-2,1-diyl))bis(azanediyl))bis(carbonyl))bis(azanediyl))dipentanedioic Acid]
4 |  | 45% and 90% |  | O=C(O)CC[C@H](NC(=O)[C@H](CC(=O)O)NC(=O)CCCNC(=O)c1cc(C(=O)NCCCC(=O)N[C@@H](CC(=O)O)C(=O)N[C@@H](CCC(=O)O)C(=O)O)cc([N+](=O)[O-])c1)C(=O)O [P293, (2S,2′S)-2,2′-(((2S,2′S)-2,2′-((4,4′-((5-Nitroisophthaloyl)bis(azanediyl))bis(butanoyl))-bis(azanediyl))bis(3-carboxypropanoyl))bis(azanediyl))dipentanedioic Acid]
5 |  | 99% |  | NCCOCCOCCOCCOCc1cn(-c2cc(C(=O)Nc3ccc(C[C@H](NC(=O)N[C@@H](CCC(=O)O)C(=O)O)C(=O)O)cc3)cc(C(=O)Nc3ccc(C[C@H](NC(=O)N[C@@H](CCC(=O)O)C(=O)O)C(=O)O)cc3)c2)nn1 [P294, (2S,2′S)-2,2′-(((((1S,1′S)-(((5-(4-(13-Amino-2,5,8,11-tetraoxatridecyl)-1H-1,2,3-triazol-1-yl)isophthaloyl)bis(azanediyl))bis(4,1-phenylene))bis(1-carboxyethane-2,1-diyl))-bis(azanediyl))bis(carbonyl))bis(azanediyl))dipentanedioic Acid]
6 |  | 45% |  | O=C(O)CC[C@@H](NC(=O)N[C@@H](CCCCNC(=O)OCc1ccccc1)C(=O)O)C(=O)O [P295, (9S,13R)-3,11-Dioxo-1-phenyl-2-oxa-4,10,12-triazapentadecane-9,13,15-tricarboxylic Acid]
7 |  | 31% |  | O=C(O)CC[C@@H](NC(=O)N[C@@H](CCCCNC(=O)c1cc(C(=O)NCCCC[C@H](NC(=O)N[C@H](CCC(=O)O)C(=O)O)C(=O)O)cc(-n2cc(CCCF)nn2)c1)C(=O)O)C(=O)O [P297, (2R,2′R)-2,2′-(((((1S,1′S)-((5-(4-(3-Fluoropropyl)-1H-1,2,3-triazol-1-yl)isophthaloyl)-bis(azanediyl))bis(1-carboxypentane-5,1-diyl))bis(azanediyl))bis(carbonyl))-bis(azanediyl))dipentanedioic Acid]
8 |  | 88% |  | O=C(O)CC[C@H](NC(=O)C[C@@H](NC(=O)CCCNC(=O)c1cc(C(=O)NCCCC(=O)N[C@H](CC(=O)N[C@@H](CCC(=O)O)C(=O)O)C(=O)O)cc([N+](=O)[O-])c1)C(=O)O)C(=O)O [P298, (2S,2′S)-2,2′-(((3R,3′R)-3,3′-((4,4′-((5-Nitroisophthaloyl)bis(azanediyl))bis(butanoyl))-bis(azanediyl))bis(3-carboxypropanoyl))bis(azanediyl))dipentanedioic Acid]

More lines, now with the values behind:

Row | Molecule | Ki [nM] | PSMA Blkg % (1.0 μM) | PSMA Blkg % (10 μM) [%]
9 | O=C(O)CC[C@H](NC(=O)N[C@@H](CCCCNC(=O)c1cc(C(=O)N2CCN(C(=O)Nc3ccc(C[C@H](NC(=O)N[C@@H](CCC(=O)O)C(=O)O)C(=O)O)cc3)CC2)cc(-n2cc(CCCF)nn2)c1)C(=O)O)C(=O)O [P286, (S)-2-(3-((S)-1-Carboxy-2-(4-(4-(3-(((S)-5-carboxy-5-(3-((S)-1,3-dicarboxypropyl)ureido)pentyl)carbamoyl)-5-(4-(3-fluoropropyl)-1H-1,2,3-triazol-1-yl)benzoyl)piperazine-1-carboxamido)phenyl)ethyl)ureido)pentanedioic Acid] | 12.5 | 92% | 
10 | O=C(O)CCC(NC(=O)N[C@@H](CCCCNC(=O)CCC(CCC(=O)NCCCC[C@H](NC(=O)NC(CCC(=O)O)C(=O)O)C(=O)O)(CCC(=O)NCCCC[C@H](NC(=O)NC(CCC(=O)O)C(=O)O)C(=O)O)NC(=O)c1ccc(-n2cc(CCCF)nn2)cc1)C(=O)O)C(=O)O (stereo partly drawn) [P287, (3S,7S,25S,29S)-16-(3-(((S)-5-Carboxy-5-(3-((S)-1,3-dicarboxypropyl)ureido)pentyl)amino)-3-oxopropyl)-16-(4-(4-(3-fluoropropyl)-1H-1,2,3-triazol-1-yl)benzamido)-5,13,19,27-tetraoxo-4,6,12,20,26,28-hexaazahentriacontane-1,3,7,25,29,31-hexacarboxylic Acid] | 1 | 95% | 
11 | NCCOCCOCCOCCOCc1cn(-c2cc(C(=O)NCCCC[C@H](NC(=O)N[C@@H](CCC(=O)O)C(=O)O)C(=O)O)cc(C(=O)NCCCC[C@H](NC(=O)N[C@@H](CCC(=O)O)C(=O)O)C(=O)O)c2)nn1 [P288, (2S,2′S)-2,2′-(((((1S,1′S)-((5-(4-(13-Amino-2,5,8,11-tetraoxatridecyl)-1H-1,2,3-triazol-1-yl)isophthaloyl)bis(azanediyl))bis(1-carboxypentane-5,1-diyl))bis(azanediyl))bis(carbonyl))-bis(azanediyl))dipentanedioic Acid] | 9.7 | 85% | 
12 | O=C(O)CC[C@H](NC(=O)C[C@@H](NC(=O)CCCCCNC(=O)c1cc(C(=O)NCCCCCC(=O)N[C@H](CC(=O)N[C@@H](CCC(=O)O)C(=O)O)C(=O)O)cc([N+](=O)[O-])c1)C(=O)O)C(=O)O [P296, (2S,2′S)-2,2′-(((3R,3′R)-3,3′-((6,6′-((5-nitroisophthaloyl)bis(azanediyl))bis(hexanoyl))-bis(azanediyl))bis(3-carboxypropanoyl))bis(azanediyl))dipentanedioic Acid] |  | 72% | 
13 | (9S,13S)-9-Carboxy-13-((1-(2-fluoroethyl)-1H-1,2,3-triazol-4-yl)methyl)-3,11-dioxo-1-phenyl-2-oxa-4,10,12-triazatetradecan-14-oic Acid [P187] |  |  | 77
14 | (S)-2-(3-((S)-1-Carboxy-5-(4-(2-fluoroethoxy)benzamido)pentyl)ureido)pentanedioic Acid [P160] | 219 |  | 88
